Source: patent publication US6310243A, “Iodinated x-ray contrast media” (Nycomed Imaging AS, priority 1994, dated 2001)
Blank lines part the entries; values can stand above or below the molecule they belong to.

How the values were obtained:
Format in all cases: physicochemical
[1] = Viscosity in aqueous solution at 20° C.
Protocol: Table 2 also gives calculated value for viscosity in mPas for concentration of 400 mg I/ml and 300 mg I/ml (at 20° C.).

Water solubility = details: noted in Table 2 in place of a concentration
Viscosity at 37° C. = test: Viscosity at 37° C.

- Viscosity 20° C. ([1]; 348 mgI/ml): 7.8 mPas
- Viscosity 20° C. ([1]; 446 mgI/ml): 22 mPas
- Viscosity 20° C. ([1]; 537 mgI/ml): 75 mPas
Compound: O=C(Nc1c(I)c(CO)c(I)c(N(CC(O)CO)C(=O)C(O)CO)c1I)C(O)CO (stereo not shown) [Example 15, N,N'-Bis(2,3-dihydroxypropionyl)-N-(2,3-dihydroxyoronyl)-3,5-diamino-2,4,6-triiodobenzylalcohol]

- Viscosity at 400 mgI/ml (CALCULATED) ([1]; 400 mgI/ml, calculated): 10.8 mPas
- Viscosity 20° C. ([1]; 481 mgI/ml): 24 mPas
Compound: CN(CC(O)CO)C(=O)c1c(I)c(CO)c(I)c(NC(=O)CO)c1I (stereo not shown) [Example 44, 5-Hydroxyacetamido-3-hydroxymethyl-N-methyl-N-(2,3-dihydroxypropyl)-2,4,6-triiodobenzamide]

- solubility (Water solubility): low
Compound: OCc1cc(OCC(O)CO)c(I)c(OCC(O)CO)c1I (stereo not shown) [Example 78, 3,5-Bis-(2,3-dihydroxypropyloxy)-2,4-diiodobenzyl alcohol]

- Viscosity at 350 mgI/ml (CALCULATED) (Viscosity at 37° C.): 5.2
- Viscosity 37° C. (Viscosity at 37° C.; 444 mgI/ml): 11
Compound: O=C(NCC(O)CO)c1c(I)c(CO)c(I)c(NC(=O)C(O)C(O)CO)c1I (stereo not shown) [Example 80, 5-[N'-(2,3,4-Trihydroxybutanoyl)amino]-3-hydroxymethyl-N-(2,3-dihydroxypropyl)-2,4,6-triiodobenzamide]

Second part, the molecule before the results:

Compound: CC(O)C(=O)Nc1c(I)c(CO)c(I)c(N(CC(O)CO)C(=O)C(C)O)c1I (stereo not shown) [Example 11, N,N'-Bis(2-hydroxypropionyl)-N-(2,3-dihydroxypropyl)-3,5-diamino-2,4,6-triiodobenzylalcohol]
- Viscosity 20° C. ([1]; 407 mgI/ml): 16 mPas

Compound: O=C(Nc1c(I)c(CO)c(I)c(NC(=O)C(O)C(O)CO)c1I)C(O)C(O)CO (stereo not shown) [Example 79, N,N'-Bis-(2,3,4-trihydroxybutanoyl)-3,5-diamino-2,4,6-triiodobenzyl alcohol]
- Viscosity at 350 mgI/ml (CALCULATED) (Viscosity at 37° C.): 5.9
- Viscosity 37° C. (Viscosity at 37° C.; 379 mgI/ml): 6.9

Compound: O=C(NC(CO)C(O)CO)c1c(I)c(CO)c(I)c(NC(=O)C(O)C(O)CO)c1I (stereo not shown) [Example 81, 5-[N'-(2,3,4-Trihydroxybutanoyl)-amino]-3-hydroxymethyl-N-(1,3,4-trihydroxybut-2-yl)-2,4,6-triiodobenzamide]
- Viscosity at 350 mgI/ml (CALCULATED) (Viscosity at 37° C.): 6.1
- Viscosity 37° C. (Viscosity at 37° C.; 376 mgI/ml): 8.9
